Columns and labels:
[1] = test system: Human immortalized sebocytes; test: Cleaved Caspase 3 Assay; type: cell-based; conditions: for cleaved caspase 3: any concentration, 2, 3 and 5 day treatment; for sebocyte apoptosis: conditions of this in vitro assay
Description: This assay examines the ability of compounds to induce apoptosis by measuring Caspase 3 generated by proteolytic processing. Cells were seeded in tissue culture treated clear bottom plates. Compounds were added in the presence of Liver X Receptor (LXR) agonist (T0901317) and 1 μM insulin for 2, 3 and 5 days. For the 5 day treatment fresh compounds were added at Day 3. After the treatment period lysates were prepared according to the manufacturer's instructions and frozen at −80° C. until the day of the assay.
Protocol—Day 1: Human immortalized sebocytes were seeded at 10,000 cells/well in 96-well, clear bottom plates in Sebocyte Growth Medium and allowed to attach overnight at 37° C. Day 2: Medium was refreshed by removing seeding medium and adding fresh Sebocyte Growth Medium. Cells were maintained at 37° C. to allow degradation of the temperature sensitive SV40 large T antigen. Day 4: 1000× stocks (in DMSO) of each compound were prepared (3 mM and 100 μM) and were diluted 1:1000 in Sebocyte Treatment Media containing 1 μM T0901317 and 1 μM Insulin to give a final top concentration of 3000 nM and 100 nM for further 10-fold dilutions in the same medium according to the plate map below. The cell medium was removed and replaced with Sebocyte Treatment Medium containing 1 μM T0901317, 1 μM Insulin, compound dilution, or vehicle (DMSO) as per plate maps for a 2, 3 and 5 day treatment. For untreated controls, media was removed and replaced with Sebocyte Treatment Media only (no T091317 or Insulin). For the 5 day treatment cells were retreated as described above on Day 7. Day 6, 7 or Day 9: 1) After treatment, the plate was centrifuged at 300×g for 10 minutes. 2) After centrifugation, the medium was removed the cells rinsed with ice-cold PBS and then centrifuged again at 300×g for 10 minutes. 3) After centrifugation the PBS was removed and replaced with 30 μl/well and left on ice for 5 minutes. 4) After 5 minutes, the lysates were frozen at −80° C. until the day of the assay. Day of Assay: Buffers and reagents were prepared according to the manufacturer's instructions. 1) 25 μl of lysate was added to the corresponding well of a 96 well black clear bottom plates. 2) 200 μl of the prepared substrate solution B was added to each well. 3) After 1 hr incubation in the dark, the relative fluorescence was determined using the following settings: 380ex/420em.
Data analysis—IC50s were determined for each test sample by using appropriate curve fits in GraphPad Prism (v.7). […]

[2] = test system: Human immortalized sebocytes; test: 14C-Acetate Sebocyte Lipid Accumulation Assay; type: cell-based; conditions: day 2, 16 hour treatment with 1 μM T0901317, then 1 μM insulin for 4 hours
Description: This assay examines the ability of compounds to modulate the incorporation of label into de novo lipid synthesis. Cells were seeded in collagen 1-coated Scintiplates. Compounds were added in the presence of Liver X Receptor (LXR) agonist (T0901317) overnight. The medium was replaced with treatments and stimulated with 1 μM insulin for 4 hours in Labeling Medium containing 14C-acetate. Label incorporation was determined by washing the cells to removed excess label and allowing the cell layer to air dry before assessing labeling through Scintiplate counting normalized to Cell Titer Blue viability reagent.
Protocol—Day 1: Human immortalized sebocytes were seeded at 10,000 cells/well in a 96-well white, clear bottom collagen 1-coated Scintiplate in Sebocyte Growth Medium and allowed to attach overnight at 37° C. Day 2: Medium was refreshed by removing seeding medium and adding fresh Sebocyte Growth Medium. […] 3) Plates were read at Ex. 560 Em.590 with a cutoff of 570 nm for CTB signal. […] 5) 14C-acetate labeling was determined by scintillation counting in a MicroBeta TriLux Scintillation Counter.
Data analysis—Cell viability is presented as cell titer blue fluorescence reading (RFU) for each treatment. […] The percent of LXR agonist+Insulin-stimulated lipogenesis was calculated by taking the ratio of each CPM measure over the corresponding cell titer blue measure. […]

## Cc1nc(C)c(-c2ccc([C@H]3CC[C@H](CC(=O)O)CC3)cc2)nc1C(N)=O [DMVT-503, 2-((1R,4R)-4-(4-(6-carbamoyl-3,5-dimethylpyrazin-2-yl)phenyl)cyclohexyl)acetic acid]
[1]
  cleaved caspase 3: No significant cleaved caspase 3 detected
  sebocyte apoptosis: did not induce sebocyte apoptosis
[2]; Homo sapiens
  IC50: 49.6 nM

## CC1=C(/C=C/C(C)=C/C=C/C(C)=C\C(=O)O)C(C)(C)CCC1 [Mix 13-cis-RA, 13-cis-retinoic Acid, reference compound]
[1]
  cleaved caspase 3: No significant cleaved caspase 3 detected
  sebocyte apoptosis: did not induce sebocyte apoptosis
[2]
  IC50: 333 nM

From patent US20210260055A1, “TOPICAL FORMULATIONS OF DGAT1 INHIBITORS AND THEIR METHODS OF USE” (Dermavant Sciences GmbH, priority 2018, published 2021)
